The values below come from US9394549B2, “Method for producing useful chemical substance from terephthalic acid potassium salt” (GENARIS, INC., priority 2012, dated 2016).

In general, solubility refers to the concentration that dissolves in the medium under given conditions.

Series [1] relates to gallic acid-producing Escherichia coli strain M7032 (pUXPEaLT_HFM145_tphA2A3BA1_tpaK). Nature of the series: Production of gallic acid from terephthalic acid salt in jar fermentor culture. It counts as cell-based. The settings on record: for Gallic acid: 0.6 M salt solution as raw material, 48 hours after the start of the main culture; for Ratio of the capacity in production (gallic acid): 48 hours, disodium terephthalate as 100%. On the procedure: A gallic acid plasmid pUXPEaLT_HFM145_tphA2A3BA1_tpaK constructed in Reference Example 2 was introduced into Escherichia coli M7032 strain by a transformation method to obtain a gallic acid-producing Escherichia coli strain M7032 (pUXPEaLT_HFM145_tphA2A3BA1_tpaK). Subsequently, in the same manner as described in Example 2, the preculture of this gallic acid-producing bacterium was prepared and then merely 2% of this preculture was inoculated in a main culture medium to carry out main culture in the above condition. When the bacterial cell turbidity reached about 7 at an absorbance of 600 nm, an inducer m-toluic acid was added such that the final concentration thereof came to 1 mM to express terephthalate 1,2-dioxygenase protein, terephthalate 1,2-dioxygenase reductase protein, terephthalate dihydrodiol dehydrogenase protein, terephthalic acid transporter protein and improved para-hydroxybenzoate hydroxylase. The glucose concentration was measured with time. When the glucose concentration reached 0, the glucose and substrate mixed solution was administered.
Sampling was carried out 48 hours after the start of the main culture. Each of the samples was subjected to analysis by an LC-TOF type mass spectrometer (Waters Corporation, LCT Premier XE). Identification of gallic acid and protocatechuic acid was carried out with a combination of retention time of high performance liquid chromatography and an accurate mass value from the mass spectrometer, comparing to a standard sample of terephthalic acid and gallic acid.

Series [2] concerns protocatechuic acid-producing Escherichia coli strain M7032 (pUXPEaLT_tphA2A3BA1_tpaK). Briefly: Production of protocatechuic acid from terephthalic acid salt in jar fermentor culture. It counts as cell-based. The note with it: for Ratio of the capacity in production (protocatechuic acid): disodium terephthalate as 100%. On the procedure: A protocatechuic acid-producing plasmid pUXPEaLT_tphA2A3BA1_tpaK constructed in Reference Example 2 was introduced into Escherichia coli M7032 strain by a transformation method to obtain a protocatechuic acid-producing Escherichia coli strain M7032 (pUXPEaLT_tphA2A3BA1_tpaK).
Subsequently, in the same manner as described in Example 2, the preculture of the present protocatechuic acid-producing bacterium was prepared and then merely 2% of such a preculture was inoculated in a main culture medium to carry out main culture. When the bacterial cell turbidity reached about 7 at an absorbance of 600 nm, an inducer m-toluic acid was added such that the final concentration thereof came to 1 mM to express terephthalate 1,2-dioxygenase protein, terephthalate 1,2-dioxygenase reductase protein, terephthalate dihydrodiol dehydrogenase protein, and terephthalic acid transporter protein. The glucose concentration was measured with time. When the glucose concentration reached 0, the glucose and substrate mixed solution was administered.
Sampling was carried out 48 hours after the start of the main culture. Each of the samples was subjected to analysis by an LC-TOF type mass spectrometer (Waters Corporation, LCT Premier XE). Identification of terephthalic acid and protocatechuic acid was carried out with a combination of retention time of high performance liquid chromatography and an accurate mass value from the mass spectrometer, comparing to a standard sample of terephthalic acid and protocatechuic acid.
(§1) Using the protocatechuic acid-producing Escherichia coli strain M7032 (pUXPEaLT_tphA2A3BA1_tpaK) created in Reference Example 2, in the same manner as described in Example 2, the preculture of the present protocatechuic acid-producing bacteria was prepared and then merely 2% of such a preculture was inoculated in a main culture medium to carry out main culture. When the bacterial cell turbidity reached about 7 at an absorbance of 600 nm, an inducer m-toluic acid was added such that the final concentration thereof came to 1 mM to express terephthalate 1,2-dioxygenase protein, terephthalate 1,2-dioxygenase reductase protein, terephthalate dihydrodiol dehydrogenase protein, and terephthalic acid transporter protein. The glucose concentration was measured with time. When the glucose concentration reached 0, the terephthalic acid salt derived from PET, which was prepared in Example 6, was dissolved such that the concentration thereof was 0.6M, mixed with glucose, and administered to a culture device.
Sampling was carried out 52 hours after the start of the main culture. Each of the samples was subjected to analysis by an LC-TOF type mass spectrometer (Waters Corporation, LCT Premier XE). Identification of terephthalic acid and protocatechuic acid was carried out with a combination of retention time of high performance liquid chromatography and an accurate mass value from the mass spectrometer, comparing to a standard sample of terephthalic acid and protocatechuic acid.
as §1, with “acid-producing bacterium” for “acid-producing bacteria”, “time. […]” for “time. When the glucose concentration reached 0, the terephthalic acid salt derived from PET, which was prepared in Example 6, was dissolved such that the concentration thereof was 0.6M, mixed with glucose, and administered to a culture device.”

The nature of series [3]: Solubility of terephthalic acid salts in water. It counts as physicochemical. As to the method: 2.99 g (0.018 mol) of terephthalic acid (in a form of powder, manufactured by Sigma-Aldrich Japan; hereinafter, unless otherwise specified, reagents used were ones manufactured by Sigma-Aldrich Japan) and 0.036 mol of potassium hydroxide (in a form of granule) were put in a 50 mL-glass beaker. Distilled water was filled to obtain a volume of about 15 mL. The resulting mixture was covered with aluminum foil as a lid, heated at 50° C. for 60 minutes while stirred by a hot stirrer (manufactured by AS ONE Corporation), and allowed to cool to 30° C. After stirring at 30° C. for 120 minutes or more and confirming the precipitate remained in the solution, 1 mL of the solution was collected and subjected to centrifugation using a high speed micro centrifuge (manufactured by Tomy Seiko Co., Ltd.) (30° C., 14000 rpm (17800 g), 30 seconds) to collect the supernatant.
The concentration of terephthalic acid in this supernatant was measured and regarded as the solubility of dipotassium terephthalate. With regard to the measurement of the concentration of terephthalic acid, the sample was diluted 16,000-fold with 2.5% aqueous acetonitrile solution and analyzed in separation conditions of Table 1 using high performance liquid chromatography (Waters Corporation, LCT Premier XE). Thereafter, the concentration was calculated on the basis of a ratio of the area of terephthalic acid peaks using aqueous terephthalic acid solution with a known concentration as a control.

Series [4] can be described thus: Solubility of terephthalic acid salts in 1-butanol. It counts as physicochemical. The settings on record: organic solvent or mixture, same manner as Example 1. An excerpt:
As just seen above, it was found out that, unlike the dissolution in ethylene glycol, the dissolution in 1-butanol was very poor.

[5] abbreviates: 0.6 M salt solution as raw material, 48 hours after the start of the main culture.
[6] abbreviates: salt obtained by depolymerization of PBT (Example 8), 0.6M, 48 hours.
The mark [7] stands for this setting: salt obtained by depolymerization of PET (Example 6), 0.6M, 52 hours.
Where [8] appears, read: 30 °C, water, thermodynamic from solid, in water at 30° C., rounded values of the summary, read-out: solubility in water at 30° C.
The mark [9] stands for this setting: 30 °C, water, thermodynamic from solid, in water, 30° C., read-out: Solubility.

Consider `O=C([O-])c1ccc(C(=O)[O-])cc1.[K+].[Na+]` [1-potassium 4-sodium terephthalate], for which the Gallic acid in series [1] was 8.4 g/L. Besides, in series [1], the “Ratio of the capacity in production (gallic acid)” value (“Ratio … (gallic acid)” for short) came out at 111%. For the same compound, the Protocatechuic acid in series [2] (setting [5]) came to 7.7 g/L; in series [2] (setting [6]), 11.0 g/L; in series [2] (setting [7]), 11.1 g/L. The “Ratio of the capacity in production (protocatechuic acid)” value (“Ratio … (protocatechuic acid)” for short) in series [2] (48 hours) is 154%; in series [2] (salt from PBT, 48 hours) it was 108%; in series [2] (salt from PET, 52 hours) it was 108%. Also, the solubility in series [3] is 956 mM. In addition, the “solubility in water at 30° C.” value in series [3] is recorded as “about 0.96 M”.

For `O=C([O-])c1ccc(C(=O)[O-])cc1.[K+].[K+]` [Dipotassium terephthalate, dipotassium terephthalate], in series [1], the Gallic acid is listed as 8.6 g/L. For the same compound, the “Ratio … (gallic acid)” value in series [1] is listed as 113%. The Protocatechuic acid in series [2] (setting [5]) worked out at 8.3 g/L; in series [2] (setting [6]) it was 11.6 g/L; in series [2] (setting [7]) it was 11.5 g/L. The “Ratio … (protocatechuic acid)” value in series [2] (48 hours) turned out to be 166%; in series [2] (salt from PBT, 48 hours), 114%; in series [2] (salt from PET, 52 hours) it was 113%. Besides, the solubility in series [4] was 0.2 mM; in series [3] (setting [8]) it was about 1000 mM; in series [3] (setting [9]), 1010 mM.

Consider `O=C([O-])c1ccc(C(=O)[O-])cc1.[Na+].[Na+]` [Disodium terephthalate, disodium terephthalate, reference compound], for which the Gallic acid in series [1] was 7.6 g/L. Moreover, the “Ratio … (gallic acid)” value in series [1] came out at 100%. Moreover, the Protocatechuic acid in series [2] (setting [5]) was 5.0 g/L; in series [2] (setting [6]) it was 10.2 g/L; in series [2] (setting [7]) it was 10.2 g/L. Moreover, the “Ratio … (protocatechuic acid)” value came out at 100% in series [2] (48 hours); 100% in series [2] (salt from PBT, 48 hours); 100% in series [2] (salt from PET, 52 hours). Also, the solubility is 1.9 mM in series [4], about 630 mM in series [3] (setting [8]) and 630 mM in series [3] (setting [9]).

For `N.O=C([O-])c1ccc(C(=O)O)cc1.[K+]` [1-potassium 4-ammonium terephthalate], in series [1], the Gallic acid is listed as 8.5 g/L and the “Ratio … (gallic acid)” value stood at 112%. The Protocatechuic acid in series [2] (setting [5]) worked out at 7.1 g/L. Further, the “Ratio … (protocatechuic acid)” value in series [2] (48 hours) came out at 142%. Besides, in series [3], the solubility amounted to 845 mM and the “solubility in water at 30° C.” value was “about 0.85 M”.
